According to patent US12251422B2, “Compositions and methods for treating neurological and other disorders” (Rush University Medical Center, priority 2018, dated 2025):
pKd: −log10 of the molar value.

How the values were obtained:
NF-κB = NF-κB activation by EMSA in BV-2 microglial cells; assay type: cell-based
Protocol: FIG. 4(A-S). Effect of wtTIDM and mTIDM peptides on the induction of NF-κB activation and the expression of proinflammatory molecules in microglial cells. BV-2 microglial cells preincubated with 10 μM wtTIDM/mTIDM peptides for 1 h were stimulated with 1 μM fibrillar Aβ1-42 (A-C), 1 μM MPP+ (D-F), 250 ng/ml LTA (G-I), […] LPS (J-L), 1 μM flagellin (M-O), and 1 μM CpG DNA (P-R) under serum-free condition. After 1 h of stimulation, the activation of NF-κB was monitored in nuclear extracts by EMSA (A, fibrillar Aβ; D, MPP+; G, LTA; J, LPS; M, flagellin, P; CpG DNA). After 4 h of stimulation, the mRNA expression of IL-1β (B, E, H, K, N, & Q) and iNOS (C, F, I, L, O, & R) was monitored by real-time PCR (B-C, fibrillar Aβ; E-F, MPP+; H-I, LTA; K-L, LPS; N-O, flagellin; Q-R, CpG DNA) (n=2 replicates/dose in 3 independent experiments). ap<0.001 vs control; bp<0.001 vs stimuli by two-sample t-tests. FIG. 4S is a schematic representation of the relationships in microglia of Toll-Like Receptors, the stimulators tested, wTIDM, MyD88 and NF-κB.
FIG. 14 (A-D). Effect of wtTIDM and mTIDM peptides on polyIC-mediated activation of NF-κB activation and the expression of proinflammatory molecules in microglial cells. BV-2 microglial cells preincubated with 10 μM wtTIDM/mTIDM peptides for 1 h were stimulated with 50 μM polyIC. A) After 1 h of stimulation, the activation of NF-κB was monitored in nuclear extracts by EMSA. After 4 h of stimulation, the mRNA expression of IL-1β and iNOS was monitored by semi-quantitative RT-PCR (B) and real-time PCR (C, IL-1β; D, iNOS) (n=2 replicates/condition in 3 independent experiments). ap<0.001 vs control; bp<0.001 vs stimuli by two-sample t-tests.
Nuclear extracts were isolated and EMSA was carried out as described before (22, 23).

[1] = target: T1, C-terminal TIR domain of TLR2 protein (cTLR2) (Mus musculus, UniProt Q9QUN7); assay: Surface plasmon resonance binding of TIDM peptides to cTLR2
T1 construct: The cTLR2 (640-784 amino acids) tagged with c-myc was cloned in lenti vector; made in house; host or cells: HEK293 cells (lentiviral expression)
T1 sequence (Q9QUN7 640-784): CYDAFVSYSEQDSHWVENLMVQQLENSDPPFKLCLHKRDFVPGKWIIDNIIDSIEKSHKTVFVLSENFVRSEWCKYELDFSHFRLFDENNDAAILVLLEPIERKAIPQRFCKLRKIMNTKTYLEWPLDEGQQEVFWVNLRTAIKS
Protocol: TLR2 full-length construct (pLenti-cmyc-DDK/tlr2) was purchased from Origene. The cTLR2 (640-784 amino acids) tagged with c-myc was cloned in lenti vector using TOPO TA cloning kit (K5310-00; Life technologies). Briefly, a kozak sequence was incorporated in the upstream of C-terminal TIR domain of TLR2. Next, cTLR2 was cloned in lentivector followed by packaging in lentivirus using HEK293FT cells. After 48 h, media was collected and concentrated with Lenti-X Concentrator (Cat #631231; Clontech). This concentrated lentiviral sup was used for viral transduction. The cTLR2 protein was isolated from HEK293 cell lysate by passing through Myc affinity column. Purified protein was desalted and concentrated by using 10 kD molecular cut-off filtration system.
To analyze the binding of TLR2 with TIDM peptides, surface plasmon resonance (SPR) experiments were carried out using a Reichert 4SPR instrument (Reichert Technologies, Buffalo, NY). Binding assay was performed using a 500 kDa Carboxymethyl Dextran Gold Sensor Slide (Reichert Inc.) for capturing TLR2. Protein immobilization was at a flow rate of 30 μl/min in PBS for 3 min with 0.8 mg/mL solution of TLR2. For analyte association, different concentrations of wtTIDM and mTIDM peptides in PBS running buffer were injected for 2.5 min at a rate of 30 μl/min followed by a dissociation phase of 3 min. The sensor surface was regenerated after each dissociation cycle by allowing buffer to flow at 40 μl/min for a minimum of 15 min. Signals obtained for the TLR2-bound surface were subtracted by signals obtained for the reference cell according to standard procedure using the system software. The concentration dependence of the subtracted signal was analyzed to determine binding affinity of TLR2 with wtTIDM and mTIDM peptides.

EAE mice = assay: Experimental allergic encephalomyelitis (EAE) in C57/BL6 mice; assay type: in vivo, mouse; conditions: 0.1 mg/kg body wt/d intranasal from 10 dpi
Excerpt: FIG. 7 (A-V). The wtTIDM, but not mTIDM, peptide protects mice from experimental allergic encephalomyelitis (EAE) and collagen-induced arthritis (CIA). […] Mice (n=6 per group in two independent experiments) were scored daily. […] On 22 dpi, general motor activities were monitored using the Ethovision XT 13.0 Open Field Activity System (Noldus) (B, heat-map images representing overall motor activities; C, distance travelled; D, rearing; E, velocity; F, acceleration) and rotorod (G). Foot print analysis (H, stride length; I, print length; J, sway length; K, toe spread) was also performed, L) CIA was induced in male DBA/1J mice by bovine type II collagen immunization and from 29 dpi, mice were treated with wtTIDM and mTIDM peptides (1 mg/kg body wt/d) via i.p. injection. Mice (n=6 per group in two independent experiments) were scored daily. […] On 60 dpi, general motor activities were monitored by Ethovision System (M, heat-map images representing overall motor activities; N, distance travelled; O, rearing; P, velocity), rotorod (Q) and grip strength (R). Foot print analysis (S, stride length; T, print length; U, sway length; V, toe spread) was also performed. Six mice (n=6 per group) were used in two independent experiments. ap<0.001 & bp<0.05 vs control; cp<0.001 & dp<0.05 vs EAE or CIA by two-sample t-tests.
FIG. 25 (A-D). Footprint analysis of EAE mice after treatment with wtTIDM and mTIDM peptides. On the walking track, we applied white paper strips and obtained the footprints of mice of different groups (A, control; B, EAE; C, EAE+wtTIDM; D, EAE+mTIDM) on paper using black ink. A total of 30-40 steps for each group were determined. Four different footprint measurements, viz., stride length (SL), print length (PL), sway length (SWL), and toe spread (TS) were calculated in centimeters from the recorded prints of mice. While SL refers the distance between the front edge of two consecutive prints of the same paw, SWL refers the distance between the paws perpendicular to the distance of travel and PL indicates the measurement of length of print area. […]

CC[C@H](C)[C@H](NC(=O)[C@H](CCCCN)NC(=O)[C@@H](NC(=O)[C@H](CCC(N)=O)NC(=O)[C@H](CCCNC(=N)N)NC(=O)[C@@H](N)CC(=O)O)[C@@H](C)CC)C(=O)N[C@@H](Cc1c[nH]c2ccccc12)C(=O)N[C@@H](Cc1ccccc1)C(=O)N[C@@H](CCC(N)=O)C(=O)N[C@@H](CC(N)=O)C(=O)N[C@@H](CCCNC(=N)N)C(=O)N[C@@H](CCCNC(=N)N)C(=O)N[C@@H](CCSC)C(=O)N[C@@H](CCCCN)C(=O)N[C@@H](Cc1c[nH]c2ccccc12)C(=O)N[C@@H](CCCCN)C(=O)N[C@@H](CCCCN)C(=O)N1CCC[C@H]1C(=O)NCC(=O)N[C@@H](Cc1c[nH]c2ccccc12)C(=O)N[C@@H](Cc1c[nH]cn1)C(=O)N[C@@H](CCC(N)=O)C(=O)N[C@@H](CC(=O)O)C(=O)O [mTIDM, drqikiwfqnrrmkwkkPGWHQD] was tested, and the “effect on activation of NF-κB induced by any of the stimuli” value (NF-κB; fibrillar Aβ, MPP+, LTA, poly IC, LPS, flagellin, CpG DNA) was “had no effect”, the pKd [1] was 4.72 and the “clinical symptoms of EAE” value (EAE mice) was “had no effect”.

In the case of CC[C@H](C)[C@H](NC(=O)[C@H](CCCCN)NC(=O)[C@@H](NC(=O)[C@H](CCC(N)=O)NC(=O)[C@H](CCCNC(=N)N)NC(=O)[C@@H](N)CC(=O)O)[C@@H](C)CC)C(=O)N[C@@H](Cc1c[nH]c2ccccc12)C(=O)N[C@@H](Cc1ccccc1)C(=O)N[C@@H](CCC(N)=O)C(=O)N[C@@H](CC(N)=O)C(=O)N[C@@H](CCCNC(=N)N)C(=O)N[C@@H](CCCNC(=N)N)C(=O)N[C@@H](CCSC)C(=O)N[C@@H](CCCCN)C(=O)N[C@@H](Cc1c[nH]c2ccccc12)C(=O)N[C@@H](CCCCN)C(=O)N[C@@H](CCCCN)C(=O)N1CCC[C@H]1C(=O)NCC(=O)N[C@@H](C)C(=O)N[C@@H](Cc1c[nH]cn1)C(=O)N[C@@H](CCC(N)=O)C(=O)N[C@@H](CCCCN)C(=O)O [wtTIDM, drqikiwfqnrrmkwkkPGAHQK], the “inhibition of LTA-mediated activation of NF-κB” value (NF-κB; 10 μM peptide 1 h, then 250 ng/ml LTA for 1 h) was “inhibited”, the “suppression of NF-κB activation induced by CpG DNA” value (NF-κB; 10 μM peptide 1 h, then 1 μM CpG DNA for 1 h) was “remained unable to suppress” and the “suppression of NF-κB activation induced by MPP+” value (NF-κB; 10 μM peptide 1 h, then 1 μM MPP+ for 1 h) was “remained unable to suppress”. The “inhibition of fibrillar Aβ-mediated activation of NF-κB” value (NF-κB; 10 μM peptide 1 h, then 1 μM fibrillar Aβ1-42 for 1 h) was “inhibited”, the “suppression of NF-κB activation induced by flagellin” value (NF-κB; 10 μM peptide 1 h, then 1 μM flagellin for 1 h) was “remained unable to suppress” and the “suppression of NF-κB activation induced by poly IC” value (NF-κB; 10 μM peptide 1 h, then 50 μM polyIC for 1 h) was “remained unable to suppress”. For the same molecule, the “suppression of NF-κB activation induced by LPS” value (NF-κB; 10 μM peptide 1 h, then 1 mg/ml LPS for 1 h) was “remained unable to suppress”, the pKd [1] was 5.10 and the “affinity for cTLR2 stronger than mTIDM” value ([1]; ratio of Kd values) was “approximately 2.5 times”. For the same molecule, the “clinical symptoms of EAE” value (EAE mice) was “strongly inhibited” and the “locomotor activities and footprints in EAE mice” value (EAE mice; 22 dpi) was “improved”.
